{"source": "patent US20100093696A1", "about": "“2-AMINO PYRIMIDINE COMPOUNDS” (Pfizer Inc., priority 2007, published 2010)", "note": "Where a name gives a salt, the structure may show the parent alone."}
{"molecular_target": "HSP-90 (Homo sapiens, UniProt P07900)", "experiment": "HSP-90 SPA (scintillation proximity assay) competition binding assay, tritiated Compound A radioligand (G2)", "settings": "read-out: (G2): % inhibition", "units": {"inhibition at 10 µM": "%"}}
{"molecule": "CCOC(=O)N1Cc2nc(N)nc(-n3ccc4ccc(F)cc43)c2C1", "note": "[Example 46, ethyl 2-amino-4-(6-fluoro-1H-indol-1-yl)-5,7-dihydro-6H-pyrrolo[3,4-d]pyrimidine-6-carboxylate]", "inhibition at 10 µM": 0}
{"molecule": "CCOC(=O)N1Cc2nc(N)nc(Oc3ccc(Cl)cc3OC)c2C1", "note": "[Example 27, ethyl 2-amino-4-(4-chloro-2-methoxyphenoxy)-5,7-dihydro-6H-pyrrolo[3,4-d]pyrimidine-6-carboxylate]", "inhibition at 10 µM": 0}
{"molecule": "CCOC(=O)N1Cc2nc(N)nc(Oc3ccc(Cl)cc3Br)c2C1", "note": "[Example 23, ethyl 2-amino-4-(2-bromo-4-chlorophenoxy)-5,7-dihydro-6H-pyrrolo[34-d]pyrimidine-6-carboxylate]", "inhibition at 10 µM": 0}
{"molecule": "CCOC(=O)N1Cc2nc(N)nc(Oc3cc(C)c(Cl)c(C)c3)c2C1", "note": "[Example 25, ethyl 2-amino-4-(4-chloro-35-dimethylphenoxy)-5,7-dihydro-6H-pyrrolo[34-d]pyrimidine-6-carboxylate hydrochloride]", "inhibition at 10 µM": 0}
